Results published in patent US6452005B1, “JAK-3 inhibitors for treating allergic disorders” (Parker Hughes Institute, priority 1999, dated 2002).

Columns and labels:
[1] = tested on: JAK3-dependent STAT activation; experiment: EMSA, IL-2 triggered STAT activation in 32Dc11/IL2Rβ cells; type: cell-based
Method: Electrophoretic Mobility Shift Assays (EMSAs). EMSAs were performed to examine the effects of dimethoxyquinazoline compounds on cytokine-induced STAT activation (Goodman et. al., 1998). […] Cells were collected after 15 minutes and resuspended in lysis buffer (100 mM Tris-HCl pH 8.0, 0.5% NP-40, 10% glycerol, […], 0.1 mM NaVO3, 50 mM NaF, 150 mM NaCl, 1 mM DTT, 3 μg/ml Aprotinin, 2 μg/ml Pepstatin A, 1 μg/ml Leupeptin and 0.2 mM PMSF). Lysates were precleared by centrifugation for 30 min. Cell extracts (approximately 10 μg) were incubated with 2 μg of poly(dI-dC) for 30 minutes, followed by a 30 minutes incubation with 1ng of poly. nucleotide kinase-^32P labeled double stranded DNA oligonucleotide representing the IRF-1 STAT DNA binding sequence (Santa Cruz Biotechnology, Santa Cruz, Calif.). Samples were resolved by non-denaturing PAGE and visualized by autoradiography.

SYK [2] = target: T1, SYK (Homo sapiens, UniProt P43405); experiment: Immune complex kinase assay, SYK from Sf21 cells; type: biochemical; settings: concentrations as high as 350 μM
T1 construct: made in house; host or cells: Sf21 insect cells, baculovirus
Description: Immune Complex Kinase Assays.

LYN = target: T2, LYN (Homo sapiens, UniProt P07948); experiment: Immune complex kinase assay, LYN from NALM-6 cells; type: biochemical; settings: concentrations as high as 350 μM
T2 construct: LYN was immunoprecipitated from whole cell lysates of NALM-6 human leukemia cells; endogenous in cells; host or cells: NALM-6 human B-lineage ALL cells

RBL-2H3 cells = experiment: Calcium mobilization assay (Fluo-3); type: cell-based, rat
Method: IgE sensitized RBL-2H3 cells were loaded with 1 μM Fluo-3 for 1 hour as described in the Examples below. The cells were then challenged with DNP-BSA or ionomycin and change in fluorescence was recorded. To study the effect of WHI-P131 on intracellular calcium mobilization, IgE-sensitized and Fluo-3 loaded RBL-2H3 cells were incubated with 3 μM, 12 μM or 30 μM WHI-P131 for 5 minutes prior to challenge with DNP-BSA or ionomycin.
Calcium Measurement: Calcium mobilization assay was performed as described earlier (Zhu et. al., 1998, Clin. Cancer Res., 4:2967-2976). RBL-2H3 cells were loaded with Fluo-3 and stimulated with DNP-BSA in presence and absence of WJI-P131 as described above. Calcium response was measured by an calcium imaging device (Universal Imaging Co., West Chester, Pa.) mounted onto a inverted microscope. The exitation wavelength was 485 nm and the emission wavelength for detection was 535 nm. The fluorescent image of an individual cell was acquired by a CCD72 video camera (Dage-MTI Inc., Michigan City, Ill.) at the speed of 1 frame/s and digitized by computer.

SYK [3] = experiment: SYK activation in RBL-2H3 mast cells after IgE receptor crosslinking; settings: 30 μM
Method: Cells were lysed at the indicated time points, and SYK immune complexes were subjected to kinase assays in the presence of cold ATP followed by APT immunoblotting (upper panels in 8C & 8D) as well as to SYK Western blot analysis (lower panels in 8C & 8D).
Immune-Complex Kinase Assays and Western Blot Analyses of Mast Cell Lysates. […] Cells were harvested, lysed (10 mM Tris pH 7.6, 100 mM NaCl, 1% Nonidet P-40, 10% glycerol, 50 mM NaF, 100 mM Na3VO4, 50 mg/ml phenylmethylsulfonyl fluoride, 10 mg/ml aprotonin, 10 mg/ml leupeptin), and the kinases were immunoprecipitated from the lysates, as reported (Uckun et. al., 1995, Science, 267:886-891; Uckun et. al., 1996, Science, 273:1096-1100). […] Immunoprecipitations, and immunoblotting using the ECL chemiluminescence detection system (Amersham Life Sciences) were conducted as described previously (Uckun et. al., 1996, Science, 273:1096-1100).

T2 sequence (P07948 whole entry): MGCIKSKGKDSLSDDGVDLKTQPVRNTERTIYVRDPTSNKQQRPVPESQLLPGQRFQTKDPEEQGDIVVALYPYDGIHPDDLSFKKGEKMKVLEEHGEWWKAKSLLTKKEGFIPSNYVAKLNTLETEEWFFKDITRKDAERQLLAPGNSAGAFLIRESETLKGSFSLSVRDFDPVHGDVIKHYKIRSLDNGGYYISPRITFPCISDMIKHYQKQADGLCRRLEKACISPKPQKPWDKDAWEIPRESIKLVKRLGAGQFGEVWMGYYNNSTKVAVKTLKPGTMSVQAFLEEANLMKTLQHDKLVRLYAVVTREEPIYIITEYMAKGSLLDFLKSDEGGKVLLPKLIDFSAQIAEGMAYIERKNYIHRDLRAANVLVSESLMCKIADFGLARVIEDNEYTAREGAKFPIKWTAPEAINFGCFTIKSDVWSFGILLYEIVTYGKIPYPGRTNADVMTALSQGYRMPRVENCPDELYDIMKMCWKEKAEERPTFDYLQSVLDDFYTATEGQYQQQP

## COc1cc2ncnc(Nc3ccc(O)cc3)c2cc1OC [WHI-P131, 4-(4′-Hydroxylphenyl)-amino-6,7-dimethoxyquinazoline]
[1]; 10 μg/ml, 32Dc11/IL2Rβ cells
  JAK3-dependent STAT activation after stimulation with IL-2: inhibited
[1]; 100 μg/ml in FIG. 6E legend
  IL-2 triggered JAK-3-dependent STAT activation: inhibited
SYK [2]
  effect on enzymatic activity of SYK: did not affect
LYN
  effect on enzymatic activity of LYN: did not affect
RBL-2H3 cells
  ionomycin induced nonspecific calcium responses: not affected
RBL-2H3 cells; 30 μM, IgE-sensitized, Fluo-3 loaded
  calcium response to DNP-BSA: abrogated
SYK [3]
  SYK activation after IgE receptor/FcεRI crosslinking: did not prevent
